Data on 5 compounds can be found in patent US20220177508A1, “C10-Cyclic Substituted 13-Membered Macrolides and Uses Thereof” (Zikani Therapeutics, Inc., priority 2018, published 2022).

Holding throughout (assay type): cell-based
Assay [1] relates to A. baumannii MP-15. The experiment in a line: Broth dilution MIC determination (CLSI), A. baumannii MP-15. To be noted: Acinetobacter baumannii, MP15; strain MP-15, broth dilution; read-out: MIC A. baumanii MP-15. In general terms: Broth dilution looks for growth in wells or tubes with falling amounts of substance.
In assay [2] the test system is K. pneumoniae MP-648. The experiment in a line: Broth dilution MIC determination (CLSI), K. pneumoniae MP-648. To be noted: Klebsiella pneumoniae, MP648; strain MP-648, broth dilution.
For assay [3], the system named is E. coli MP-4. The experiment in a line: Broth dilution MIC determination (CLSI), E. coli MP-4. To be noted: Escherichia coli, MP4; strain MP-4, broth dilution; read-out: MIC E. coli MP-4.
For assay [4], the system named is S. aureus MP-12. The experiment in a line: Broth dilution MIC determination (CLSI), S. aureus MP-12. The following applies: Staphylococcus aureus, MP12; strain MP-12, broth dilution.
The test system of assay [5] is P. aeruginosa MP-3. In words: Broth dilution MIC determination (CLSI), P. aeruginosa MP-3. The following applies: Pseudomonas aeruginosa, MP3; strain MP-3, broth dilution.
Assay [6] has as its system K. pneumoniae MP-546. In words: Broth dilution MIC determination (CLSI), K. pneumoniae MP-546. The following applies: Klebsiella pneumoniae, MP546; strain MP-546, broth dilution.

Each structure is given as a SMILES string. Converted amounts (≈) assume the structure as drawn.

The MIC is the smallest concentration in the dilution series that meets the test's criterion for growth inhibition. For the compound `CO[C@]1(C)C[C@@H](C)CN(C)[C@H]([C@H]2C[C@H](N(C)CC3CC3)C2)COC(=O)C(C)(C)C(=O)[C@H](C)[C@H]1O[C@@H]1O[C@H](C)C[C@H](N(C)C)[C@H]1O` [Compound 24, (3R,6R,8R,9R,10R)-3-((1r,3R)-3-((cyclopropylmethyl)(methyl)amino)cyclobutyl)-9-(((2S,3R,4S,6R)-4-(dimethylamino)-3-hydroxy-6-methyltetrahydro-2H-pyran-2-yl)oxy)-8-methoxy-4,6,8,10,12,12-hexamethyl-1-oxa-4-azacyclotridecane-11,13-dione], the MIC is greater than 32 µg/mL in assay [1]; less than 4 µg/mL in assay [2]; less than 4 µg/mL in assay [3]; 4 to 32 µg/mL (≈ 6.27 to 50.2 µM) in assay [4]; greater than 32 µg/mL in assay [5]; less than 4 µg/mL in assay [6].

On to `CO[C@]1(C)C[C@@H](C)CN(C)[C@H](C2CN(C(=O)CC(C)(C)CN(C)CC3CC3)C2)COC(=O)C(C)(C)C(=O)[C@H](C)[C@H]1O[C@@H]1O[C@H](C)C[C@H](N(C)C)[C@H]1O` [Compound 25, (3R,6R,8R,9R,10R)-3-(1-(4-((cyclopropylmethyl)(methyl)amino)-3,3-dimethylbutanoyl)azetidin-3-yl)-9-(((2S,3R,4S,6R)-4-(dimethylamino)-3-hydroxy-6-methyltetrahydro-2H-pyran-2-yl)oxy)-8-methoxy-4,6,8,10,12,12-hexamethyl-1-oxa-4-azacyclotridecane-11,13-dione], for which the MIC in assay [1] was greater than 32 µg/mL; in assay [2], 4 to 32 µg/mL (≈ 5.43 to 43.4 µM); in assay [3] it was less than 4 µg/mL; in assay [4], 4 to 32 µg/mL (≈ 5.43 to 43.4 µM); in assay [5], greater than 32 µg/mL; in assay [6], less than 4 µg/mL.

Turning to `CO[C@]1(C)C[C@@H](C)CN(C)[C@H]([C@H]2C[C@H](N(C)C)C2)COC(=O)C(C)(C)C(=O)[C@H](C)[C@H]1O[C@@H]1O[C@H](C)C[C@H](N(C)C)[C@H]1O` [Compound 30, (3R,6R,8R,9R,10R)-9-(((2S,3R,4S,6R)-4-(dimethylamino)-3-hydroxy-6-methyltetrahydro-2H-pyran-2-yl)oxy)-3-((1r,3R)-3-(dimethylamino)cyclobutyl)-8-methoxy-4,6,8,10,12,12-hexamethyl-1-oxa-4-azacyclotridecane-11,13-dione], the MIC in assay [1] was greater than 32 µg/mL; in assay [2], less than 4 µg/mL; in assay [3] it was less than 4 µg/mL; in assay [4], 4 to 32 µg/mL (≈ 6.69 to 53.5 µM); in assay [5], greater than 32 µg/mL; in assay [6], less than 4 µg/mL.

Turning to `CO[C@]1(C)C[C@@H](C)CN(C)[C@H]([C@H]2C[C@@H](N(C)CC3CCCO3)C2)COC(=O)C(C)(C)C(=O)[C@H](C)[C@H]1O[C@@H]1O[C@H](C)C[C@H](N(C)C)[C@H]1O` (stereo partly drawn) [Compound 31, (3R,6R,8R,9R,10R)-9-(((2S,3R,4S,6R)-4-(dimethylamino)-3-hydroxy-6-methyltetrahydro-2H-pyran-2-yl)oxy)-8-methoxy-4,6,8,10,12,12-hexamethyl-3-((1s,3S)-3-(methyl((tetrahydrofuran-2-yl)methyl)amino)cyclobutyl)-1-oxa-4-azacyclotridecane-11,13-dione], the MIC was greater than 32 µg/mL in assay [1]; 4 to 32 µg/mL (≈ 5.99 to 47.9 µM) in assay [2]; less than 4 µg/mL in assay [3]; greater than 32 µg/mL in assay [4]; greater than 32 µg/mL in assay [5]; less than 4 µg/mL in assay [6].

Turning to `COCC(C)N1CC([C@@H]2COC(=O)C(C)(C)C(=O)[C@H](C)[C@@H](O[C@@H]3O[C@H](C)C[C@H](N(C)C)[C@H]3O)[C@](C)(OC)C[C@@H](C)CN2C)C1` (stereo partly drawn) [Compound 32, (3R,6R,8R,9R,10R)-9-(((2S,3R,4S,6R)-4-(dimethylamino)-3-hydroxy-6-methyltetrahydro-2H-pyran-2-yl)oxy)-8-methoxy-3-(1-(1-methoxypropan-2-yl)azetidin-3-yl)-4,6,8,10,12,12-hexamethyl-1-oxa-4-azacyclotridecane-11,13-dione], the MIC is greater than 32 µg/mL in assay [1]; 4 to 32 µg/mL (≈ 6.37 to 51 µM) in assay [2]; less than 4 µg/mL in assay [3]; greater than 32 µg/mL in assay [4]; greater than 32 µg/mL in assay [5]; 4 to 32 µg/mL (≈ 6.37 to 51 µM) in assay [6].
